Calls of active or inactive are those of the source. No cut-off for these calls is given here.
Assays:
CCRF-CEM [1] = assay: Cytotoxicity against human CCRF-CEM cells after 72 hrs by XTT assay; assay type: functional, cell-based
HCT-116 = assay: Cytotoxicity against human HCT116 cells after 72 hrs by SRB assay; assay type: functional, cell-based; conditions: HCT-116, 72 h
CCRF-CEM [2] = assay: Ratio of IC50 for human vinblastine-resistant CCRF-CEM cells to IC50 for human CCRF-CEM cells; assay type: functional
CCRF-CEM [3] = assay: Cytotoxicity against human taxol-resistant CCRF-CEM cells after 72 hrs by XTT assay; assay type: functional, cell-based
[4] = Cytotoxicity against human H1299 cells after 72 hrs by alamar blue assay; assay type: functional, cell-based; conditions: NCI-H1299, 72 h
CCRF-CEM [5] = assay: Ratio of IC50 for human taxol-resistant CCRF-CEM cells to IC50 for human CCRF-CEM cells; assay type: functional
[6] = Cytotoxicity against human U87 cells after 72 hrs by alamar blue assay; assay type: functional, cell-based, U-87MG ATCC; conditions: U-87 MG
[7] = Cytotoxicity against human OECM1 cells after 72 hrs by alamar blue assay; assay type: functional, cell-based; conditions: OECM1, 72 h
CCRF-CEM [8] = assay: Cytotoxicity against human vinblastine-resistant CCRF-CEM cells after 72 hrs by XTT assay; assay type: functional, cell-based
MX1 [9] = assay: Cytotoxicity against human MX1 cells after 72 hrs by SRB assay; assay type: functional, cell-based; conditions: MX1, 72 h
PC-3 = assay: Cytotoxicity against human PC3 cells after 72 hrs by alamar blue assay; assay type: functional, cell-based; conditions: PC-3, 72 h
Nucleic Acid = assay: Induction of Escherichia coli pEGFP-N1 DNA interstrand cross-linking at 1 to 20 uM after 2 hrs using ethidium bromide staining by alkaline agarose gel shift assay; assay type: nucleic-acid assay
Mus musculus [10] = assay: Toxicity in athymic nude mouse assessed as weight loss at 10 mg/kg, iv administered q2d for 4 days; assay type: organism-based; design: dose 10 mg/kg, route intravenous; conditions: in vivo, 96 h
Mus musculus [11] = assay: Toxicity in athymic nude mouse assessed as weight loss at 30 mg/kg, iv administered q2d for 4 days; assay type: organism-based; design: dose 30 mg/kg, route intravenous; conditions: in vivo, 96 h
Mus musculus [12] = assay: Toxicity in athymic nude mouse assessed as weight loss at 20 mg/kg, iv administered q2d for 3 days followed by 25 mg/kg, iv q2d for 4 days; assay type: organism-based; conditions: in vivo
MX1 [13] = assay: Antitumor activity against human MX1 cells xenografted in athymic nude mouse assessed as tumor suppression at 10 mg/kg, iv administered q2d for 4 days; assay type: functional
[14] = Cell cycle arrest in human H1299 cells assessed as accumulation of G2/M phase cells after 24 to 48 hrs by propidium iodidee-based flow cytometry; assay type: functional; conditions: NCI-H1299
MX1 [15] = assay: Antitumor activity against human MX1 cells xenografted in athymic nude mouse assessed as tumor suppression at 30 mg/kg, iv administered q2d for 4 days; assay type: functional
[16] = Cell cycle arrest in human H1299 cells assessed as accumulation of sub-G1 phase cells after 24 to 48 hrs by propidium iodidee-based flow cytometry; assay type: functional; conditions: NCI-H1299
[17] = Cell cycle arrest in human H1299 cells assessed as reduction in G1 phase cells after 24 to 48 hrs by propidium iodidee-based flow cytometry; assay type: functional; conditions: NCI-H1299
[18] = Cell cycle arrest in human H1299 cells assessed as reduction in G1 phase cells at 25 uM at 24 hrs by propidium iodideee-based flow cytometry; assay type: functional; conditions: NCI-H1299
[19] = Cell cycle arrest in human H1299 cells assessed as accumulation of G1 phase cells at 25 uM at 48 hrs by propidium iodideee-based flow cytometry; assay type: functional; conditions: NCI-H1299

Structure (SMILES) | IC50 (CCRF-CEM [1]) [nM] | Ratio IC50 (CCRF-CEM [2]) | IC50 (CCRF-CEM [3]) [nM] | IC50 [4] [nM] | Ratio IC50 (CCRF-CEM [5]) | IC50 [6] [nM] | IC50 [7] [nM] | IC50 (CCRF-CEM [8]) [nM] | IC50 (PC-3) [nM] | other results
CCNC(=O)OCc1c(COC(=O)NCC)c2sc3ccccc3n2c1-c1ccc(F)c(F)c1 | 210 | 1.47 | 340 | 10300 | 1.61 | 38500 | 14600 | 310 | 19300 | IC50 (HCT-116): 1100 nM; IC50 (MX1 [9]): 1490 nM
Cc1c(CO)c(CO)c2sc3ccccc3n12 | 970 | 1.91 | 1880 | – | 1.93 | – | – | 1860 | – | IC50 (HCT-116): 4440 nM; IC50 (MX1 [9]): 7100 nM
OCc1c(CO)c2sc3ccccc3n2c1C1CC1 | 970 | 2.51 | 2310 | 13300 | 2.37 | 28700 | 7120 | 2440 | 10700 | –
Cc1c(COC(=O)NC(C)C)c(COC(=O)NC(C)C)c2sc3ccccc3n12 | 130 | 1.92 | 220 | 9700 | 1.69 | – | – | 250 | – | IC50 (HCT-116): 970 nM; IC50 (MX1 [9]): 130 nM
CC[C@]1(O)C[C@@H]2CN(CCc3c([nH]c4ccccc34)[C@@](C(=O)OC)(c3cc4c(cc3OC)N(C)[C@H]3[C@@](O)(C(=O)OC)[C@H](OC(C)=O)[C@]5(CC)C=CCN6CC[C@]43[C@@H]65)C2)C1 [VINBLASTINE] | – | 680 | – | – | 106 | – | – | – | – | –
CCNC(=O)OCc1c(COC(=O)NCC)c2sc3ccccc3n2c1-c1ccc(OC)c(OC)c1 | 490 | – | – | – | – | – | – | – | – | –
OCc1c(CO)c2sc3ccccc3n2c1-c1ccc(F)c(Cl)c1 | 3090 | – | – | – | – | – | – | – | – | –
CCNC(=O)OCc1c(COC(=O)NCC)c2sc3ccccc3n2c1-c1ccc(F)c(Cl)c1 | 380 | – | – | – | – | – | – | – | – | –
CCNC(=O)OCc1c(COC(=O)NCC)c2sc3ccccc3n2c1C1CC1 | 170 | 3.18 | 680 | 20600 | 4.01 | 74500 | 26300 | 540 | 24200 | –
CC(C)NC(=O)OCc1c(COC(=O)NC(C)C)c2sc3ccccc3n2c1-c1ccc(F)c(F)c1 | 330 | 0.9 | 190 | 30800 | 0.57 | 74800 | 15100 | 300 | 29600 | IC50 (HCT-116): 410 nM; IC50 (MX1 [9]): 1000 nM
OCc1c(CO)c2sc3ccccc3n2c1-c1ccc(F)cc1 | 1060 | 3.5 | 2560 | 9270 | 2.41 | 15500 | 6030 | 3720 | 13800 | Activity (Nucleic Acid): Active; IC50 (HCT-116): 9590 nM; IC50 (MX1 [9]): 2770 nM
CC(C)NC(=O)OCc1c(COC(=O)NC(C)C)c2sc3ccccc3n2c1-c1ccc(F)c(Cl)c1 | 500 | – | – | – | – | – | – | – | – | –
CCNC(=O)OCc1c(COC(=O)NCC)c2sc3ccccc3n2c1-c1ccc(Cl)c(Cl)c1 | 380 | – | – | – | – | – | – | – | – | –
OCc1c(CO)c2sc3ccccc3n2c1-c1ccc(Cl)c(Cl)c1 | 1040 | – | – | – | – | – | – | – | – | –
COc1cc(-c2c(CO)c(CO)c3sc4ccccc4n23)cc(OC)c1OC | 4030 | – | – | – | – | – | – | – | – | –
CCNC(=O)OCc1c(COC(=O)NCC)c2sc3ccccc3n2c1-c1ccc(F)cc1 | 70 | 6.42 | 380 | 13600 | 5.42 | 29200 | 11500 | 450 | 23700 | Activity (Nucleic Acid): Active; Activity (Mus musculus [10]): 20%; IC50 (HCT-116): 520 nM; Activity (Mus musculus [11]): 20%; Activity (Mus musculus [12]): 20%; Activity (MX1 [13]): >99%; IC50 (MX1 [9]): 480 nM

Structure (SMILES) | IC50 (CCRF-CEM [1]) [nM] | Ratio IC50 (CCRF-CEM [2]) | IC50 (CCRF-CEM [3]) [nM] | IC50 [4] [nM] | Ratio IC50 (CCRF-CEM [5]) | IC50 [6] [nM] | IC50 [7] [nM] | IC50 (CCRF-CEM [8]) [nM] | IC50 (PC-3) [nM] | other results
COc1ccc(-c2c(COC(=O)NC(C)C)c(COC(=O)NC(C)C)c3sc4ccccc4n23)cc1OC | 110 | – | – | – | – | – | – | – | – | –
COc1cc(-c2c(COC(=O)NC(C)C)c(COC(=O)NC(C)C)c3sc4ccccc4n23)cc(OC)c1OC | 1050 | – | – | – | – | – | – | – | – | –
CCNC(=O)OCc1c(COC(=O)NCC)c2sc3ccccc3n2c1C | 330 | 1.3 | 450 | – | 1.3 | – | – | 430 | – | –
CC(C)NC(=O)OCc1c(COC(=O)NC(C)C)c2sc3ccccc3n2c1-c1ccc(Cl)c(Cl)c1 | 2290 | – | – | – | – | – | – | – | – | –
CCNC(=O)OCc1c(COC(=O)NCC)c2sc3ccccc3n2c1-c1cc(OC)c(OC)c(OC)c1 | 320 | – | – | – | – | – | – | – | – | –
COc1ccc(-c2c(COC(=O)NC(C)C)c(COC(=O)NC(C)C)c3sc4ccccc4n23)cc1 | 140 | 1.47 | 170 | 8190 | 1.17 | 60900 | 7230 | 250 | 17500 | Activity (Nucleic Acid): Active
CCNC(=O)OCc1c(COC(=O)NCC)c2sc3ccccc3n2c1-c1ccc(OC)cc1 | 190 | 2.2 | 370 | 8850 | 1.9 | 29500 | 9390 | 420 | 17900 | Activity (Nucleic Acid): Active
CC(C)NC(=O)OCc1c(COC(=O)NC(C)C)c2sc3ccccc3n2c1C1CC1 | 100 | 9 | 730 | 20400 | 7.3 | 45500 | 9670 | 900 | 13400 | –
CC(C)NC(=O)OCc1c(COC(=O)NC(C)C)c2sc3ccccc3n2c1-c1ccc(F)cc1 | 50 | 3.8 | 160 | 33000 | 3.2 | 53500 | 11900 | 190 | 24200 | Activity (Nucleic Acid): Active; Activity (Mus musculus [10]): 20%; IC50 (HCT-116): 350 nM; Activity (Mus musculus [11]): 20%; Activity (Mus musculus [12]): 20%; IC50 (MX1 [9]): 620 nM
COc1ccc(-c2c(CO)c(CO)c3sc4ccccc4n23)cc1OC | 1820 | – | – | – | – | – | – | – | – | –
CCNC(=O)OCc1c(COC(=O)NCC)c2sc3ccccc3n2c1-c1ccc(Cl)cc1 | 210 | 1.85 | 320 | 4330 | 1.52 | 26000 | 11600 | 390 | 13800 | Activity (Nucleic Acid): Active; Activity [14]: Active; Activity (Mus musculus [10]): 20%; IC50 (HCT-116): 700 nM; Activity (Mus musculus [11]): 20%; Activity (Mus musculus [12]): 20%; Activity (MX1 [15]): >99%; IC50 (MX1 [9]): 910 nM; Activity [16]: Active; Activity [17]: Dose-dependent effect
CC(=O)O[C@H]1C(=O)[C@@]2(C)[C@H]([C@H](OC(=O)c3ccccc3)[C@]3(O)C[C@H](OC(=O)[C@H](O)[C@@H](NC(=O)c4ccccc4)c4ccccc4)C(C)=C1C3(C)C)[C@]1(OC(C)=O)CO[C@@H]1C[C@@H]2O [PACLITAXEL] | – | 980 | – | – | 358 | – | – | – | – | –
COc1ccc(-c2c(CO)c(CO)c3sc4ccccc4n23)cc1 | 1130 | 2.3 | 2170 | 9940 | 1.9 | 18100 | 5000 | 2630 | 8810 | Activity (Nucleic Acid): Active
OCc1c(CO)c2sc3ccccc3n2c1-c1ccc(Cl)cc1 | 2610 | 1.56 | 5220 | 12400 | 2 | 20700 | 14600 | 4090 | 20400 | Activity (Nucleic Acid): Active; Activity [18]: Active; IC50 (HCT-116): 9260 nM; Activity [19]: Active; IC50 (MX1 [9]): 10400 nM
OCc1c(CO)c2sc3ccccc3n2c1-c1ccc(F)c(F)c1 | 190 | 1.47 | 190 | 21400 | 1 | 17400 | 8480 | 280 | 15200 | –
